# Measurements published in publication PMC8435237, “Overexpressing the N‐terminus of CATALASE2 enhances plant jasmonic acid biosynthesis and resistance to necrotrophic pathogen Botrytis cinerea B05.10” (Molecular Plant Pathology, 2021).
# Columns and labels:
# ACX3 = molecular target: T1, ACX3 (Arabidopsis thaliana, UniProt P0CZ23); assay: MALDI-TOF/TOF MS of substrate and product; format: biochemical; details: no CAT2; 50 mM KPO4 pH 7.6, 50 µM FAD, 100 µg/ml BSA, 25 °C, 30 min; product Δ2-OPC4-CoA
# T1 construct: pET28a (plasmid as in Yuan et al. 2017), purified from E. coli
# T1 sequence (P0CZ23 35-675): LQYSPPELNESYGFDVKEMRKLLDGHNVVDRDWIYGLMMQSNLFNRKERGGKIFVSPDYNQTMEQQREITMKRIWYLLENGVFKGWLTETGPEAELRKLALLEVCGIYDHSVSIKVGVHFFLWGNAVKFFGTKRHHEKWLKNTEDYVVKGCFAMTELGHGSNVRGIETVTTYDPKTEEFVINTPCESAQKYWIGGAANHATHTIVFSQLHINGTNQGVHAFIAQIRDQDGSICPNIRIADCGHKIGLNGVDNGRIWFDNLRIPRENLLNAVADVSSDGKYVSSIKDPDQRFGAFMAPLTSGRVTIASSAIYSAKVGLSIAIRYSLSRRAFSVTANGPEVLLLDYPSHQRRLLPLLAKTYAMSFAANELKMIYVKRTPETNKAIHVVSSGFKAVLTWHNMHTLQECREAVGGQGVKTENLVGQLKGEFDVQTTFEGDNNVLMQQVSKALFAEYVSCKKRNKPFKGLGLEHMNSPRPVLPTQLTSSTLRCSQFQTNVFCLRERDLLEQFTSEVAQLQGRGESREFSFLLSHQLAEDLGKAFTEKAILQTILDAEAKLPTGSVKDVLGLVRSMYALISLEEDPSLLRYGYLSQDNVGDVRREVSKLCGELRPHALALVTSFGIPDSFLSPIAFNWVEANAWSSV
# ACX2 = molecular target: T2, ACX2 (Arabidopsis thaliana, UniProt O65201); assay: MALDI-TOF/TOF MS of substrate and product; format: biochemical; details: no CAT2; 50 mM KPO4 pH 7.6, 50 µM FAD, 100 µg/ml BSA, 25 °C, 30 min; product Δ2-OPC4-CoA
# T2 construct: pET28a (plasmid as in Yuan et al. 2017), purified from E. coli
# T2 sequence (O65201 50-692): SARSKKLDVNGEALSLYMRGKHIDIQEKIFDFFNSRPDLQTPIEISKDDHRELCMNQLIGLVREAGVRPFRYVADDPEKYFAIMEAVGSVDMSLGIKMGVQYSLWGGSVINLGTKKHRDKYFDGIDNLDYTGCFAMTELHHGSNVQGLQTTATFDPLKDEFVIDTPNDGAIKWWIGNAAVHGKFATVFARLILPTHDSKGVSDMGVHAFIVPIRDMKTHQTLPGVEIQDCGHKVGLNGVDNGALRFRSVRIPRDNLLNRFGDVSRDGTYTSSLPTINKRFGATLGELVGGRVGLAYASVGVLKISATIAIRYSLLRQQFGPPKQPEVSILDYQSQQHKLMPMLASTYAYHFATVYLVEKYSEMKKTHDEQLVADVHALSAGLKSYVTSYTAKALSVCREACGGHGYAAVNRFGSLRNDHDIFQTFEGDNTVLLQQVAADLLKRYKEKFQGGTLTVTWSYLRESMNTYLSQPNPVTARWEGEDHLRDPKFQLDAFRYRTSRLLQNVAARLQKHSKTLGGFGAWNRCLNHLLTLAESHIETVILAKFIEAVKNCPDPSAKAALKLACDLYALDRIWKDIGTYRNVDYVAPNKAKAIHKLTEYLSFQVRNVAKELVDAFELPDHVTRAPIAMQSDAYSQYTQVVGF
smiles,measurement,setting,value
CC/C=C\C[C@@H]1C(=O)CC[C@@H]1CCCC(=O)SCCNC(=O)CCNC(=O)[C@H](O)C(C)(C)COP(=O)(O)OP(=O)(O)OC[C@H]1O[C@@H](n2cnc3c(N)ncnc32)[C@H](O)[C@@H]1OP(=O)(O)O [OPC4‐CoA],MALDI-TOF/TOF MS of substrate and product,ACX3,The enzymatic activities of ACX2 and ACX3 were assessed with OPC4‐CoA as the substrate
same,MALDI-TOF/TOF MS of substrate and product,ACX2,The enzymatic activities of ACX2 and ACX3 were assessed with OPC4‐CoA as the substrate
